Reference: ChEMBL document CHEMBL6074649, “An insight into recent developments in imidazole based heterocyclic compounds as anticancer agents: Synthesis, SARs, and mechanism of actions” (Eur J Med Chem, 2024)

Legend:
MCF7 [1] = assay: Antiproliferative activity against human MCF7 cells; assay type: functional, cell-based
MG-63 = assay: Antiproliferative activity against human MG-63 cells; assay type: functional, cell-based
A549 [2] = assay: Antiproliferative activity against human A549 cells assessed as reduction in cell growth; assay type: functional, cell-based
[3] = Antiproliferative activity against HEK293 cells; assay type: toxicity, cell-based; details: human
NCI-H1299 = assay: Anticancer activity against human NCI-H1299 cells at 100 uM relative to control; assay type: functional
PC-3 = assay: Anticancer activity against human PC-3 cells at 100 uM relative to control; assay type: functional
HCT-116 = assay: Anticancer activity against human HCT-116 cells at 100 uM relative to control; assay type: functional
SiHa = assay: Antiproliferative activity against human SiHa cells; assay type: functional, cell-based
A549 [4] = assay: Antiproliferative activity against human A549 cells; assay type: functional, cell-based
[5] = Antiproliferative activity against human BJ cells; assay type: toxicity, cell-based
MCF7 [6] = assay: Cytotoxicity against human MCF7 cells; assay type: functional, cell-based
[7] = Cytotoxicity against human MCF-10A cells; assay type: toxicity, cell-based
[8] = Cytotoxicity against mouse L929 cells; assay type: toxicity, cell-based
HeLa = assay: Cytotoxicity against human HeLa cells; assay type: functional, cell-based
[9] = Cytotoxicity against mouse EMT6/AR1 cells; assay type: functional, cell-based
A549 [10] = assay: Cytotoxicity against human A549 cells; assay type: functional, cell-based
B16-F10 = assay: Cytotoxicity against mouse B16-F10 cells; assay type: functional, cell-based
[11] = Antiproliferative activity against human IGR-39 cells assessed as reduction in cell viability after 48 hrs by SRB assay; assay type: functional, cell-based; details: IGR-39, 48 h
MDA-MB-231 = assay: Antiproliferative activity against human MDA-MB-231 cells assessed as reduction in cell viability after 48 hrs by SRB assay; assay type: functional, cell-based; details: MDA-MB-231, 48 h

SMILES: COc1ccc2[nH]c(=O)c(-c3nc(-c4ccccc4)c(-c4ccccc4)[nH]3)cc2c1
- IC50 (MCF7 [1]): 50.1 µM
- IC50 (MG-63): 62 µM
- IC50 (A549 [2]): 39.4 µM
- IC50 [3]: 86.5 µM

SMILES: O=C(CS(=O)(=O)NS(=O)(=O)CC(=O)Nc1nc(-c2ccc(Cl)cc2)c[nH]1)Nc1nc(-c2ccc(Cl)cc2)c[nH]1
- inhibition at 100 µM (NCI-H1299): 21.4%
- inhibition at 100 µM (PC-3): 32.1%
- inhibition at 100 µM (HCT-116): 41.4%

SMILES: CN1CCN(c2ccc(-c3nc(-c4ccc(N5C(=O)c6cccc7c(N8CCN(C)CC8)ccc(c67)C5=O)cc4)[nH]c3-c3ccc(N4CCN(C)CC4)cc3)cc2)CC1
- IC50 (SiHa): 5.4 µM
- IC50 (A549 [4]): 6.5 µM
- IC50 [5]: 13.3 µM

SMILES: COc1cc(C(=O)c2[nH]c(N)nc2-c2cccs2)cc(OC)c1OC
- IC50 (MCF7 [6]): 0.121 µM
- IC50 [7]: 1.89 µM
- IC50 [8]: 1.66 µM
- IC50 (HeLa): 0.036 µM
- IC50 [9]: 2.43 µM
- IC50 (A549 [10]): 0.112 µM
- IC50 (B16-F10): 0.416 µM

SMILES: CCn1c(-c2ccc(F)cc2)cn(-c2cccc(S(N)(=O)=O)c2)c1=O
- EC50 [11]: 27.8 µM
- EC50 (MDA-MB-231): 20.5 µM
